pIC50, pKd: −log10 of the molar value. Several values for one entry are separate records, joined by “and”; a condition that tells them apart may be missing. Identical values can stand only once. Counter-ions that a name gives are not always drawn.

Assay [1] concerns the target T1, wild type human RORγt ligand binding domain (RORyt LBD) (Homo sapiens, UniProt P51449).
T1 construct: His-tag (N); TurboTEV protease cleavage site (ENLYFQG) (N); made in house; host or cells: E. coli (pHIS1, modified pET vector)
T1 sequence (P51449 258-518): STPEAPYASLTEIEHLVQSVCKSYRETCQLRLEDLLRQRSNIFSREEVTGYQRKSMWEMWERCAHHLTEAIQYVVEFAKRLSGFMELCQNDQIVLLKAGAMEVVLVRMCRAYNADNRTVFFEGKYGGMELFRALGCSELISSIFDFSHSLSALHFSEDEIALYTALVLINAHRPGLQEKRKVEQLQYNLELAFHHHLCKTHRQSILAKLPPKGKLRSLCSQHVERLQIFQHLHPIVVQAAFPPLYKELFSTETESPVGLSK
Put plainly: RORγt ThermoFluor assay (thermal shift, binding affinity KD).

Assay [2] deals with T2, wild type human RORγt LBD (Homo sapiens, UniProt P51449).
T2 construct: expressed in transfected cells; host or cells: HEK293T
T2 sequence (P51449 258-518): T1 sequence (P51449 258-518)
Put plainly: RORγt (LBD) Reporter Assay (GAL4-luciferase, HEK293T cells). The assay is classed as cell-based. Conditions: for pIC50: HEK293T cells, value after the comma with ∼, > or < could not be included in the average; for inhibition at 6 µM: HEK-293T, read-out: RORγt (LBD) Reporter Assay, % inhibition @ 6 µM, 6 µM compound concentration; for RORγt (LBD) Reporter Assay, % inhibition @ 6 µM: 6 µM compound concentration.

For the compound `Cn1cncc1C(O)(c1ccc2nc(C(F)(F)F)c(Cc3ccccc3)c(C#N)c2c1)c1ccccn1` (racemic) [Example 99a, 3-Benzyl-6-(hydroxy(1-methyl-1H-imidazol-5-yl)(pyridin-2-yl)methyl)-2-(trifluoromethyl)quinoline-4-carbonitrile•TFA], the pKd (usually −log10 of the Kd, conventionally taken in molar units) in assay [1] is 7.70. In addition, in assay [2], the pIC50 (commonly −log10 of the IC50, conventionally taken in molar units) was 7.01 and the inhibition at 6 µM was 93%.

On to `COc1nc2ccc(C(O)(c3cncn3C)C3CCOCC3)cc2c(Cl)c1Cc1ccc(-n2cccn2)cc1` (single isomer, unassigned) [Example 1b, (3-(4-(1H-Pyrazol-1-yl)benzyl)-4-chloro-2-methoxyquinolin-6-yl)(1-methyl-1H-imidazol-5-yl)(tetrahydro-2H-pyran-4-yl)methanol], for which, in assay [1], the pKd was 7.37. Besides, in assay [2], the pIC50 is 7.00 and the inhibition at 6 µM stood at 99%.

Consider `COc1nc2ccc(C(O)(c3cncn3C)C3CCOCC3)cc2c(Cl)c1Cc1ccc(-n2cccn2)cc1` (single isomer, unassigned) [Example 1c, (3-(4-(1H-Pyrazol-1-yl)benzyl)-4-chloro-2-methoxyquinolin-6-yl)(1-methyl-1H-imidazol-5-yl)(tetrahydro-2H-pyran-4-yl)methanol], for which the negative-log Kd (pKd) in assay [1] is 8.82. Besides, in assay [2], the “RORγt (LBD) Reporter Assay, % inhibition @ 6 µM” value (“RORγt … % inhibition @ 6 µM” below) is given as 98% and the negative-log IC50 (pIC50) was 7.66.

As to `COc1nc2ccc(C(O)(c3ccc(C#N)cc3)c3cncn3C)cc2c(Cl)c1Cc1ccc(-n2cncn2)cc1` (single isomer, unassigned) [Example 14b, 4-((3-(4-(1H-1,2,4-Triazol-1-yl)benzyl)-4-chloro-2-methoxyquinolin-6-yl)(hydroxy)(1-methyl-1H-imidazol-5-yl)methyl)benzonitrile], the negative logarithm of the Kd (pKd) in assay [1] was 6.85. For the same compound, in assay [2], the negative logarithm of the IC50 (pIC50) is 6.92 and the inhibition at 6 µM worked out at 105%.

`COc1nc2ccc(C(O)(c3ccc(C#N)cc3)c3cncn3C)cc2c(Cl)c1Cc1ccc(-n2cncn2)cc1` (single isomer, unassigned) [Example 14c, 4-((3-(4-(1H-1,2,4-Triazol-1-yl)benzyl)-4-chloro-2-methoxyquinolin-6-yl)(hydroxy)(1-methyl-1H-imidazol-5-yl)methyl)benzonitrile]: the pKd in assay [1] is 8.26. In addition, in assay [2], the “RORγt … % inhibition @ 6 µM” value is reported as 106% and the pIC50 was 7.62.

On to `COc1nc2ccc(C(O)(c3ccc(C#N)cc3)c3cncn3C)cc2c(C#N)c1Cc1ccc(-n2cncn2)cc1` (single isomer, unassigned) [Example 15b, 3-(4-(1H-1,2,4-Triazol-1-yl)benzyl)-6-((4-cyanophenyl)(hydroxy)(1-methyl-1H-imidazol-5-yl)methyl)-2-methoxyquinoline-4-carbonitrile], for which the pKd in assay [1] was 6.85. Moreover, in assay [2], the negative logarithm of the IC50 (pIC50) is 6.39 and the inhibition at 6 µM worked out at 99%.

For the compound `COc1nc2ccc(C(O)(c3ccc(C#N)cc3)c3cncn3C)cc2c(C#N)c1Cc1ccc(-n2cncn2)cc1` (single isomer, unassigned) [Example 15c, 3-(4-(1H-1,2,4-Triazol-1-yl)benzyl)-6-((4-cyanophenyl)(hydroxy)(1-methyl-1H-imidazol-5-yl)methyl)-2-methoxyquinoline-4-carbonitrile], the negative-log Kd (pKd) in assay [1] was 7.77. Besides, in assay [2], the “RORγt … % inhibition @ 6 µM” value was determined as 97% and the pIC50 is 7.55.

Consider `COc1nc2ccc(C(O)(c3ccc(C)nc3C)c3cnnn3C)cc2c(Cl)c1Cc1ccc(-n2cccn2)cc1` (single isomer, unassigned) [Example 17b, (3-(4-(1H-Pyrazol-1-yl)benzyl)-4-chloro-2-methoxyquinolin-6-yl)(2,6-dimethylpyridin-3-yl)(1-methyl-1H-1,2,3-triazol-5-yl)methanol], for which the pKd in assay [1] is 6.70. Further, in assay [2], the negative logarithm of the IC50 (pIC50) is 6.18 and the inhibition at 6 µM came out at 97%.

Take `COc1nc2ccc(C(O)(c3ccc(C)nc3C)c3cnnn3C)cc2c(Cl)c1Cc1ccc(-n2cccn2)cc1` (single isomer, unassigned) [Example 17c, (3-(4-(1H-Pyrazol-1-yl)benzyl)-4-chloro-2-methoxyquinolin-6-yl)(2,6-dimethylpyridin-3-yl)(1-methyl-1H-1,2,3-triazol-5-yl)methanol]: the pKd in assay [1] is 9.54. Besides, in assay [2], the “RORγt … % inhibition @ 6 µM” value is reported as 101% and the pIC50 is 8.05.

On to `COc1nc2ccc(C(O)(c3ccccc3)C3CCN(C(C)=O)CC3)cc2c(Cl)c1Cc1ccc(-n2cncn2)cc1` (single isomer, unassigned) [Example 18b, 1-(4-((3-(4-(1H-1,2,4-Triazol-1-yl)benzyl)-4-chloro-2-methoxyquinolin-6-yl)(hydroxy)(phenyl)methyl)piperidin-1-yl)ethanone], for which the pKd in assay [1] was 8.10. For the same compound, in assay [2], the pIC50 was 7.08 and the inhibition at 6 µM is 99%.

`COc1nc2ccc(C(O)(c3ccccc3)C3CCN(C(C)=O)CC3)cc2c(Cl)c1Cc1ccc(-n2cncn2)cc1` (single isomer, unassigned) [Example 18c, 1-(4-((3-(4-(1H-1,2,4-Triazol-1-yl)benzyl)-4-chloro-2-methoxyquinolin-6-yl)(hydroxy)(phenyl)methyl)piperidin-1-yl)ethanone]: the pKd in assay [1] was 7.30. In assay [2], the “RORγt … % inhibition @ 6 µM” value is listed as 91% and the pIC50 was 7.06.

In the case of `COc1nc2ccc(C(O)(c3ccc(C)nc3C)c3cnnn3C)cc2c(Cl)c1Cc1ccc(C)cc1` (single isomer, unassigned) [Example 20b, (4-Chloro-2-methoxy-3-(4-methylbenzyl)quinolin-6-yl)(2,6-dimethylpyridin-3-yl)(1-methyl-1H-1,2,3-triazol-5-yl)methanol], the pKd in assay [1] was 6.41. In addition, in assay [2], the pIC50 is 5.85 and the inhibition at 6 µM is 84%.

For `COc1nc2ccc(C(O)(c3ccc(C)nc3C)c3cnnn3C)cc2c(Cl)c1Cc1ccc(C)cc1` (single isomer, unassigned) [Example 20c, (4-Chloro-2-methoxy-3-(4-methylbenzyl)quinolin-6-yl)(2,6-dimethylpyridin-3-yl)(1-methyl-1H-1,2,3-triazol-5-yl)methanol], the pKd in assay [1] was 9.21. Also, in assay [2], the “RORγt … % inhibition @ 6 µM” value amounted to 93%; the pIC50 was 7.24 and ~7.52.

Consider `COc1nc2ccc(C(O)(c3sc(C)nc3C)c3cnnn3C)cc2c(Cl)c1Cc1ccc(-n2cccn2)cc1` (single isomer, unassigned) [Example 21b, (3-(4-(1H-Pyrazol-1-yl)benzyl)-4-chloro-2-methoxyquinolin-6-yl)(2,4-dimethylthiazol-5-yl)(1-methyl-1H-1,2,3-triazol-5-yl)methanol], for which the pKd in assay [1] was 7.66. In assay [2], the pIC50 was 6.89 and the inhibition at 6 µM came out at 99%.

Regarding `COc1nc2ccc(C(O)(c3sc(C)nc3C)c3cnnn3C)cc2c(Cl)c1Cc1ccc(-n2cccn2)cc1` (single isomer, unassigned) [Example 21c, (3-(4-(1H-Pyrazol-1-yl)benzyl)-4-chloro-2-methoxyquinolin-6-yl)(2,4-dimethylthiazol-5-yl)(1-methyl-1H-1,2,3-triazol-5-yl)methanol], the negative logarithm of the Kd (pKd) in assay [1] was 10.10. In addition, in assay [2], the “RORγt … % inhibition @ 6 µM” value amounted to 98% and the pIC50 was 8.06.

Consider `COc1nc2ccc(C(O)(c3ccc(C)nc3C)c3cnnn3C)cc2c(Cl)c1Cc1ccc(-n2cncn2)cc1` (single isomer, unassigned) [Example 22b, (3-(4-(1H-1,2,4-Triazol-1-yl)benzyl)-4-chloro-2-methoxyquinolin-6-yl)(2,6-dimethylpyridin-3-yl)(1-methyl-1H-1,2,3-triazol-5-yl)methanol], for which the negative-log Kd (pKd) in assay [1] is 6.32. For the same compound, in assay [2], the pIC50 is 6.10 and the inhibition at 6 µM was 97%.

Turning to `COc1nc2ccc(C(O)(c3ccc(C)nc3C)c3cnnn3C)cc2c(Cl)c1Cc1ccc(-n2cncn2)cc1` (single isomer, unassigned) [Example 22c, (3-(4-(1H-1,2,4-Triazol-1-yl)benzyl)-4-chloro-2-methoxyquinolin-6-yl)(2,6-dimethylpyridin-3-yl)(1-methyl-1H-1,2,3-triazol-5-yl)methanol], the pKd in assay [1] was 8.70. In addition, in assay [2], the “RORγt … % inhibition @ 6 µM” value is 98% and the negative-log IC50 (pIC50) was 7.96.

Regarding `CCc1nc2ccc(C(O)(c3ccc(C)nc3C)c3cnnn3C)cc2c(Cl)c1Cc1ccc(C(F)(F)F)cc1` (single isomer, unassigned) [Example 23b, (4-Chloro-2-ethyl-3-(4-(trifluoromethyl)benzyl)quinolin-6-yl)(2,6-dimethylpyridin-3-yl)(1-methyl-1H-1,2,3-triazol-5-yl)methanol], in assay [1], the pKd is 7.09. Also, in assay [2], the pIC50 is 6.70 and the inhibition at 6 µM stood at 94%.

`CCc1nc2ccc(C(O)(c3ccc(C)nc3C)c3cnnn3C)cc2c(Cl)c1Cc1ccc(C(F)(F)F)cc1` (single isomer, unassigned) [Example 23c, (4-Chloro-2-ethyl-3-(4-(trifluoromethyl)benzyl)quinolin-6-yl)(2,6-dimethylpyridin-3-yl)(1-methyl-1H-1,2,3-triazol-5-yl)methanol]: the pKd in assay [1] is 10.52. Moreover, in assay [2], the “RORγt … % inhibition @ 6 µM” value was 97% and the pIC50 was 7.34.

Values taken from patent EP3057951B1, “METHYLENE LINKED QUINOLINYL MODULATORS OF ROR-GAMMA-T” (Janssen Pharmaceutica NV, priority 2013, dated 2015).
